Assay results taken from patent publication US20050197350A1, “Novel quinoline, tetrahydroquinazoline, and pyrimidine derivatives and methods of treatment related to the use thereof” (TAISHO PHARMACEUTICAL CO., LTD., priority 2003, published 2005).

system: MCH receptors; test: MCH receptor activity class (method not given); conditions: class by percent of control at 10^-7 M or IC50

Row | Structure (SMILES) | class
1 | CN(C)c1ccnc(N[C@H]2CC[C@@H](NC(=O)CCC3CCCCC3)CC2)n1 [compound 834] | 3 (Class 3 The value of percent of control at 10^−7 M was more than 60% or the value of IC50 was more than 200 nM.)
2 | Cc1ccnc(SCC(=O)N[C@H]2CC[C@@H](Nc3nccc(N(C)C)n3)CC2)n1 [compound 835] | 3 (Class 3 The value of percent of control at 10^−7 M was more than 60% or the value of IC50 was more than 200 nM.)
3 | CN(C)c1ccnc(N[C@H]2CC[C@@H](NC(=O)c3ccc(-c4ccc(Cl)cc4)o3)CC2)n1 [compound 836] | 1 (Class 1: The value of percent of control at 10^−7 M was less than 40% or the value of IC50 was less than 50 nM.)
4 | CN(C)c1ccnc(N[C@H]2CC[C@@H](NC(=O)CCc3ccc(Cl)c(Cl)c3)CC2)n1 [compound 837] | 3 (Class 3 The value of percent of control at 10^−7 M was more than 60% or the value of IC50 was more than 200 nM.)
5 | CN(C)c1ccnc(N[C@H]2CC[C@@H](NC(=O)Cc3ccc(Cl)c(Cl)c3)CC2)n1 [compound 838] | 3 (Class 3 The value of percent of control at 10^−7 M was more than 60% or the value of IC50 was more than 200 nM.)
6 | COc1cc(CC(=O)N[C@H]2CC[C@@H](Nc3nccc(N(C)C)n3)CC2)cc(OC)c1O [compound 839] | 3 (Class 3 The value of percent of control at 10^−7 M was more than 60% or the value of IC50 was more than 200 nM.)
7 | COc1cc(CC(=O)N[C@H]2CC[C@@H](Nc3nccc(N(C)C)n3)CC2)cc(OC)c1 [compound 841] | 3 (Class 3 The value of percent of control at 10^−7 M was more than 60% or the value of IC50 was more than 200 nM.)
8 | CN(C)c1ccnc(N[C@H]2CC[C@@H](NC(=O)Cc3cc(C(C)(C)C)c(O)c(C(C)(C)C)c3)CC2)n1 [compound 842] | 1 (Class 1: The value of percent of control at 10^−7 M was less than 40% or the value of IC50 was less than 50 nM.)
9 | CN(C)c1cccc(C(=O)N[C@H]2CC[C@@H](Nc3nccc(N(C)C)n3)CC2)c1 [compound 844] | 2 (Class 2: The value of percent of control at 10^−7 M was from 40% to 60% or the value of IC′50 was from 50 nM to 200 nM.)
10 | CN(C)c1ccnc(N[C@H]2CC[C@@H](NC(=O)c3cc(Br)c(Br)o3)CC2)n1 [compound 845] | 1 (Class 1: The value of percent of control at 10^−7 M was less than 40% or the value of IC50 was less than 50 nM.)
11 | CN(C)c1ccnc(N[C@H]2CC[C@@H](NC(=O)CCC(=O)c3ccc(F)cc3)CC2)n1 [compound 846] | 3 (Class 3 The value of percent of control at 10^−7 M was more than 60% or the value of IC50 was more than 200 nM.)
12 | CN(C)c1ccnc(N[C@H]2CC[C@@H](NC(=O)[C@H](Cc3cn(Cc4ccccc4)cn3)NC(=O)OC(C)(C)C)CC2)n1 [compound 848] | 3 (Class 3 The value of percent of control at 10^−7 M was more than 60% or the value of IC50 was more than 200 nM.)
13 | CN(C)c1ccnc(N[C@H]2CC[C@@H](NC(=O)Cc3c[nH]c4ccccc34)CC2)n1 [compound 850] | 2 (Class 2: The value of percent of control at 10^−7 M was from 40% to 60% or the value of IC′50 was from 50 nM to 200 nM.)
14 | Cc1sc(-c2ccccc2)nc1CC(=O)N[C@H]1CC[C@@H](Nc2nccc(N(C)C)n2)CC1 [compound 851, N-(cis-4-{[4-(dimethylamino)pyrimidin-2-yl]amino}cyclohexyl)-2-(5-methyl-2-phenyl-1,3-thiazol-4-yl)acetamide] | 2 (Class 2: The value of percent of control at 10^−7 M was from 40% to 60% or the value of IC′50 was from 50 nM to 200 nM.)
15 | COc1ccc(CSC2(CC(=O)N[C@H]3CC[C@@H](Nc4nccc(N(C)C)n4)CC3)CCCCC2)cc1 [compound 853] | 3 (Class 3 The value of percent of control at 10^−7 M was more than 60% or the value of IC50 was more than 200 nM.)
16 | COc1ccc2c(CC(=O)N[C@H]3CC[C@@H](Nc4nccc(N(C)C)n4)CC3)cc(=O)oc2c1 [compound 854] | 3 (Class 3 The value of percent of control at 10^−7 M was more than 60% or the value of IC50 was more than 200 nM.)
17 | Cc1cc(C)c(NC(=O)Nc2ccc(OC(F)(F)F)cc2)c(C(=O)N[C@H]2CC[C@@H](Nc3nccc(N(C)C)n3)CC2)c1 [compound 857] | 3 (Class 3 The value of percent of control at 10^−7 M was more than 60% or the value of IC50 was more than 200 nM.)
18 | CN(C)c1ccnc(N[C@H]2CC[C@@H](NC(=O)c3cc(Cl)cc(Cl)c3NC(=O)C#Cc3ccccc3)CC2)n1 [compound 858] | 2 (Class 2: The value of percent of control at 10^−7 M was from 40% to 60% or the value of IC′50 was from 50 nM to 200 nM.)
19 | CN(C)c1ccnc(N[C@H]2CC[C@@H](NC(=O)c3cccc(-n4c(-c5ccc(Br)cc5)cc5c4CC(C)(C)CC5=O)c3)CC2)n1 [compound 859] | 3 (Class 3 The value of percent of control at 10^−7 M was more than 60% or the value of IC50 was more than 200 nM.)

Row | Structure (SMILES) | class
20 | Cc1c(C(=O)N[C@H]2CC[C@@H](Nc3nccc(N(C)C)n3)CC2)cc(-c2ccccc2)n1CCCN1CCOCC1 [compound 863, N-(cis-4-{[4-(dimethylamino)pyrimidin-2-yl]amino}cyclohexyl)-2-methyl-1-(3-morpholin-4-ylpropyl)-5-phenyl-1H-pyrrole-3-carboxamide] | 2 (Class 2: The value of percent of control at 10^−7 M was from 40% to 60% or the value of IC′50 was from 50 nM to 200 nM.)
21 | CN(C)c1ccnc(N[C@H]2CC[C@@H](NC(=O)CCCc3ccc([N+](=O)[O-])cc3)CC2)n1 [compound 864, N-(cis-4-{[4-(dimethylamino)pyrimidin-2-yl]amino}cyclohexyl)-4-(4-nitrophenyl)butanamide] | 2 (Class 2: The value of percent of control at 10^−7 M was from 40% to 60% or the value of IC′50 was from 50 nM to 200 nM.)
22 | CN(C)c1ccnc(N[C@H]2CC[C@@H](NC(=O)/C=C/c3ccccc3[N+](=O)[O-])CC2)n1 [compound 866] | 3 (Class 3 The value of percent of control at 10^−7 M was more than 60% or the value of IC50 was more than 200 nM.)
23 | CN(C)c1ccnc(N[C@H]2CC[C@@H](NC(=O)Cc3cccc(Oc4ccccc4)c3)CC2)n1 [compound 867] | 3 (Class 3 The value of percent of control at 10^−7 M was more than 60% or the value of IC50 was more than 200 nM.)
24 | CN(C)c1ccnc(N[C@H]2CC[C@@H](NC(=O)Cc3ccc(Oc4ccccc4)cc3)CC2)n1 [compound 868] | 3 (Class 3 The value of percent of control at 10^−7 M was more than 60% or the value of IC50 was more than 200 nM.)
25 | CN(C)c1ccnc(N[C@H]2CC[C@@H](NC(=O)Cc3c(-c4ccccc4)[nH]c4ccccc34)CC2)n1 [compound 869, N-(cis-4-{[4-(dimethylamino)pyrimidin-2-yl]amino}cyclohexyl)-2-(2-phenyl-1H-indol-3-yl)acetamide] | 1 (Class 1: The value of percent of control at 10^−7 M was less than 40% or the value of IC50 was less than 50 nM.)
26 | CN(C)c1ccnc(N[C@H]2CC[C@@H](NC(=O)c3cccc(Oc4ccccc4)c3)CC2)n1 [compound 871] | 2 (Class 2: The value of percent of control at 10^−7 M was from 40% to 60% or the value of IC′50 was from 50 nM to 200 nM.)
27 | CN(C)c1ccnc(N[C@H]2CC[C@@H](NC(=O)c3ccccc3CCc3ccccc3)CC2)n1 [compound 872] | 3 (Class 3 The value of percent of control at 10^−7 M was more than 60% or the value of IC50 was more than 200 nM.)
28 | CN(C)c1ccnc(N[C@H]2CC[C@@H](NC(=O)c3cccc(C(=O)c4ccccc4)c3)CC2)n1 [compound 873] | 2 (Class 2: The value of percent of control at 10^−7 M was from 40% to 60% or the value of IC′50 was from 50 nM to 200 nM.)
29 | CCSC(C(=O)N[C@H]1CC[C@@H](Nc2nccc(N(C)C)n2)CC1)(c1ccccc1)c1ccccc1 [compound 874, N-(cis-4-{[4-(dimethylamino)pyrimidin-2-yl]amino}cyclohexyl)-2-(ethylthio)-2,2-diphenylacetamide] | 1 (Class 1: The value of percent of control at 10^−7 M was less than 40% or the value of IC50 was less than 50 nM.)
30 | CN(C)c1ccnc(N[C@H]2CC[C@@H](NC(=O)c3ccccc3Sc3ccccc3C#N)CC2)n1 [compound 875] | 3 (Class 3 The value of percent of control at 10^−7 M was more than 60% or the value of IC50 was more than 200 nM.)
31 | COc1cc(CC(=O)N[C@H]2CC[C@@H](Nc3nccc(N(C)C)n3)CC2)ccc1OCc1ccccc1 [compound 876] | 3 (Class 3 The value of percent of control at 10^−7 M was more than 60% or the value of IC50 was more than 200 nM.)
32 | C[C@@H](NC(=O)c1ccccc1C(=O)N[C@H]1CC[C@@H](Nc2nccc(N(C)C)n2)CC1)c1cccc2ccccc12 [compound 877, N-(cis-4-{[4-(dimethylamino)pyrimidin-2-yl]amino}cyclohexyl)-N′-[(1R)-1-(1-naphthyl)ethyl]phthalamide] | 2 (Class 2: The value of percent of control at 10^−7 M was from 40% to 60% or the value of IC′50 was from 50 nM to 200 nM.)
33 | C[C@H](C(=O)N[C@H]1CC[C@@H](Nc2nccc(N(C)C)n2)CC1)c1cccc(C(=O)c2ccccc2)c1 [compound 878, (2S)-2-(3-benzoylphenyl)-N-(cis-4-{[4-(dimethylamino)pyrimidin-2-yl]amino}cyclohexyl)propanamide] | 2 (Class 2: The value of percent of control at 10^−7 M was from 40% to 60% or the value of IC′50 was from 50 nM to 200 nM.)
34 | C[C@@H](c1ccccc1)N(C(=O)c1ccccc1C(=O)N[C@H]1CC[C@@H](Nc2nccc(N(C)C)n2)CC1)[C@@H](C)c1ccccc1 [compound 879, N′-(cis-4-{[4-(dimethylamino)pyrimidin-2-yl]amino}cyclohexyl)-N,N-bis[(1S)-1-phenylethyl]phthalamide] | 1 (Class 1: The value of percent of control at 10^−7 M was less than 40% or the value of IC50 was less than 50 nM.)
35 | C[C@H](C(=O)N[C@H]1CC[C@@H](Nc2nccc(N(C)C)n2)CC1)c1ccc(-c2ccccc2)c(F)c1 [compound 880] | 3 (Class 3 The value of percent of control at 10^−7 M was more than 60% or the value of IC50 was more than 200 nM.)
36 | CN(C)c1ccnc(N[C@H]2CC[C@@H](NC(=O)CCC(=O)c3cccs3)CC2)n1 [compound 885] | 3 (Class 3 The value of percent of control at 10^−7 M was more than 60% or the value of IC50 was more than 200 nM.)
37 | CN(C)c1ccnc(N[C@H]2CC[C@@H](NC(=O)CCCc3cccs3)CC2)n1 [compound 886] | 3 (Class 3 The value of percent of control at 10^−7 M was more than 60% or the value of IC50 was more than 200 nM.)
